Results reported in paper PMC6425379, “Pharmacokinetic Study and Tissue Distribution of Lorlatinib in Mouse Serum and Tissue Samples by Liquid Chromatography-Mass Spectrometry” (Journal of Analytical Methods in Chemistry, 2019).
Like-named read-outs stand apart in the source and are kept apart here.

Legend:
[1] = Tissue distribution of lorlatinib in mice after oral administration (LC-MS/MS); type: in vivo, Kun Ming mice; conditions: 10 mg/kg; for concentration at 0.5 h: Kun Ming, mouse
Method: (§1) All the animal-related experiments were performed in accordance with guidelines of Institutional Experimental Animal Ethical Committee. Kun Ming mice (18–20 g) were obtained from the Beijing HFK Bioscience Co., Ltd. (Beijing, China). All mice were given free access to normal diet and water during the experiment with an exception that mice were fasted for 12 h prior to drug administration.
Tissue samples were weighed, and methanol was added to tissue samples at a ratio of methanol: tissue = 2 mL: 100 mg. Subsequently, tissue samples were homogenized using a high-throughput tissue homogenizer and vortex-mixed for 3 min. Supernatant was obtained by centrifuging at 11,000 rpm for 15 min. Then, 400 μL of 40 ng/mL IS solution was added to 100 μL supernatant. After vortex-mixing, supernatant was isolated by centrifugation.
(§2) The mice were orally administered with 10 mg/kg lorlatinib. Blood and tissue samples were collected from mice at 0.5, 1, 2, 4, 8, and 24 h after administration. The blood samples were transferred into glass containers and clotted at room temperature for 1 h. Once the clot was formed, blood sample was centrifuged at 4,000 rpm for 10 min, and supernatant was collected. The serum was transferred into another tube and stored at −80°C prior to further analysis. Tissue samples were rinsed by physiological saline, and then excess physiological saline was blotted up. The tissue samples were transferred into PP plastic bags and stored at −80°C until further detection.
(§3) The pharmacokinetic parameters of lorlatinib were estimated with noncompartment model by DAS (Data Analysis System) software (version 3.0, BioGuider Co., Shanghai, China). Moment analysis was used as a noncompartmental approach to obtain various pharmacokinetic parameters. Noncompartmental approach allowed the estimation of pharmacokinetic parameters without assuming any structural properties of the pharmacokinetic behavior of lorlatinib. The area under the curve (AUC) and the first moment curve (AUMC) were calculated by using the linear trapezoidal method, which is required by FDA. The half-life (t1/2) was estimated as MRT multiplied by 0.693. Cmax was defined as maximal concentration, and Tmax was defined as the time at which the Cmax was observed. The tissue distribution was described by quantifying lorlatinib in various tissues at 0.5, 1, 2, 4, 8, and 24 h after administration. All data were summarized to calculate means and standard deviations, and then the concentration-time curve was plotted.

[2] = Pharmacokinetic study of lorlatinib in mouse serum after oral administration (LC-MS/MS, noncompartmental model); type: in vivo, Kun Ming mice; conditions: mice, 10 mg/kg
Method: as §1
In order to make all serum samples fall within the range suitable for testing, 10 μL of serum sample was diluted to 100 μL with blank serum. The diluted serum sample was evenly mixed using vortex-mixing. A mixture sample was prepared by adding 200 μL of IS working solution (10 ng/mL) to 20 μL of diluted serum sample, and the mixture was vortex-mixed for 3 min. In order to extract lorlatinib, the supernatant was obtained by centrifugation (11,000 rpm, 15 min, 4°C). Then, 100 μL of supernatant was diluted to 200 μL with purified water, and the mixture was immediately vortex-mixed for 3 min.
as §2, §3

- time at which the maximum concentration appeared in each tissue ([1]; each tissue): 0.5 h
- concentration at 0.5 h ([1]; brain, read-out: concentration in brain): 1850 ng/g
- concentration at 0.5 h ([1]; heart, read-out: concentration in heart): 3670 ng/g
- concentration at 0.5 h ([1]; kidney, read-out: concentration in kidney): 5490 ng/g
- concentration at 0.5 h ([1]; large intestine, read-out: concentration in large intestine): 2900 ng/g
- concentration at 0.5 h ([1]; liver, read-out: concentration in liver): 31500 ng/g
- concentration at 0.5 h ([1]; lung, read-out: concentration in lung): 3090 ng/g
- concentration at 0.5 h ([1]; small intestine, read-out: concentration in small intestine): 5410 ng/g
- concentration at 0.5 h ([1]; spleen, read-out: concentration in spleen): 2470 ng/g
- concentration at 0.5 h ([1]; stomach, read-out: concentration in stomach): 21600 ng/g
- concentration at 24 h ([2]; Kun Ming, mouse, 24 h after administration): 20.9 ± 1.07 ng/mL
- Cmax ([2]; Kun Ming, mouse, n=8, mean): 2710 ng/mL
- Tmax ([2]; Kun Ming, mouse, n=8, mean): 0.625 h
- half-life ([2]; Kun Ming, mouse, n=8, mean, read-out: t1/2z (converted)): 3.26 h
- maximal serum concentration ([2]; mean ± SD): 2,705.683 ± 539.779 μg/L
- AUC(0–∞) ([2]; n=8, mean): 16208.177 ug/L ∗ h
- AUMC(0–∞) ([2]; n=8, mean): 78840.738 h ∗ h ∗ ug/L
Compound: C[C@H]1Oc2cc(cnc2N)-c2c(nn(C)c2C#N)CN(C)C(=O)c2ccc(F)cc21 [Lorlatinib]
